Details: basic group

| SMILES | pKa |
| --- | --- |
| Cc1cc(-c2ccc(N)c(C)c2)ccc1N | 4.64 |
| Nc1cc(C[NH3+])ccc1Cl | 3.71 |
| Nc1ncc([N+](=O)[O-])s1 | 0.61 |
| CN1Cc2c(ccc3c2OCO3)-c2ccc3cc4c(cc3c21)OCO4 | 2.6 |
| Cn1c[nH+]c2cc(N)ccc21 | 3.09 |
| COc1cc(N)c(C#N)c(N)n1 | 4.17 |
| NC(=S)C1(N)CCCCC1 | 7.23 |
| O=c1cccccc1 | -0.82 |
| O=C([O-])c1cccc2cccnc12 | 6.99 |
| CC[NH+](CC)CCCC(C)Nc1cc(OC)cc2cccnc12 (stereo not given) | 3.63 |
| CC1CNCc2ccccc2OCCOc2ccccc2CN1 (stereo not given) | 9.41 |
| [S-]c1nccc[nH+]1 | 1.3 |
| O=C([O-])CCCc1c[nH]cn1 | 7.62 |
| CCOCCn1c(CN2CCN(CCCCn3cccn3)CC2)nc2ccccc21 | 7.9 |
| Nc1ccc(Cc2ccc([NH3+])cc2)cc1 | 4 |
| Cc1ccccc1-n1nnnc1N | 1.23 |
| Nc1ccc2cnc3ccccc3c2c1 | 6.88 |
| N=C(Nc1ccccc1)Nc1ccccc1 | 9.94 |
| N#CC(C#N)=NNc1ccc(Cl)cc1 | -0.79 |

| SMILES | pKa |
| --- | --- |
| CCOc1cccc(/N=C/N(C)C)c1 | 8.87 |
| Clc1cc(-c2ccccc2)nnc1NCC[NH+]1CCOCC1 | 2.54 |
| CC(=O)n1cccn1 | 3.16 |
| CCc1cncc(C)c1 | 5.2 |
| CC1=C(CC(C)NCC(O)c2ccccc2)CCC1(C)C (stereo not given) | 8.84 |
| C[C@H]1CN[C@@H](C)CN1 | 9.98 |
| Cn1c([O-])[nH+]c2cnc([O-])nc21 | 8.74 |
| C[C@H](O)C(=O)C1=Nc2c([O-])nc(N)nc2NC1 | 10.1 |
| COc1ccc(O)c(CNC(CO)C(=O)[O-])c1 (stereo not given) | 8.3 |
| CNc1ccc(C)cc1 | 5.36 |
| CC[n+]1ccc([O-])nc1[S-] | 8.7 |
| Cc1ccccc1NC(C)(C)C | 6.49 |
| COCC/N=C(\c1ccccc1)C(C)(C)O | 5.75 |
| CC1=CCN2CC[C@@H](O)[C@@H]12 | 9.6 |
| COc1cnc2ccccc2n1 | 0.28 |
| C=CC(=O)NCCCN(C)C | 9.23 |
| Nc1ccncc1 | 9.16 |
| Clc1ccc(-c2cnc(-c3ccccc3)o2)cc1 | 0.7 |
| CNc1nc(C)nc2[nH]ncc12 | 5.56 |

| SMILES | pKa |
| --- | --- |
| Cc1cc(C)c(CN)cc1N | 9.77 |
| [NH3+]c1ccc(-c2ncc(-c3ccc(Br)cc3)o2)cc1 | -0.05 |
| C=CCN | 9.74 |
| OCCCCCc1ccncc1 | 6.04 |
| COc1cc(C)n(-c2ccccc2)n1 | 1.5 |
| c1ccc(-c2ccc3nc(C[NH+]4CCOCC4)cn3n2)cc1 | 1.4 |
| C=C[C@]1(O)CN2CC[C@H]1C[C@@H]2[C@@H](O)c1ccnc2ccc(OC)cc12 | 7.24 |
| NCc1ccccc1[N+](=O)[O-] | 8.59 |
| c1ccc(N(CC2CO2)CC2CO2)cc1 (stereo not given) | -0.4 |
| Cc1ccccc1C(=NCCN(C)C)c1ccccc1C | 8.5 |
| Cc1ccc2ncccc2c1 | 5.1 |
| CNCc1ccccc1 | 9.64 |
| Cc1ccc(C2NCCS2)cc1 (stereo not given) | 5.35 |
| Cc1nc2ccccc2n(C)c1=O | 0.51 |
| CC1=C(CC(C)[NH2+]CC(O)c2ccc(N)cc2)CCC1(C)C (stereo not given) | 3.69 |
| Nc1ccc(I)cc1 | 3.79 |
| CCNc1ncnc2c1cnn2C | 4.24 |
| [O-]c1nc([O-])c2[nH]nnc2[nH+]1 | 4.2 |
| COc1ccc([N+](=O)[O-])cc1C(=O)N[C@@H]1C[C@H]2CC[C@@H](C1)N2Cc1ccccc1 | 8.7 |

Continued, values first:

| pKa | SMILES |
| --- | --- |
| 11 | CCCCCCCCCCCCNCCCCCCCCCCCC |
| 10.4 | CN(CCCN)CCCN |
| 9.7 | Cc1cc(-c2ccccc2)nn(CCN2CCOCC2)c1=N |
| 7.32 | CCCNC(C)C(=O)Nc1ccccc1C (stereo not given) |
| 4.71 | c1ccc(-c2ccc3nccn3n2)cc1 |
| 7.71 | CCOC(=O)C(N)CC (stereo not given) |
| 9.44 | NC(Cc1c[nH]c2ccccc12)C(=O)[O-] (stereo not given) |
| 6.35 | N[C@@H]1CCCC[C@@H]1[NH3+] |
| 5.03 | Nc1cccc2ccc3ncccc3c12 |
| 0.2 | Cc1cc2nc3ccc(N(C)C)cc3[nH+]c2cc1N |
| 1.47 | c1ccc(-c2cccc[nH+]2)nc1 |
| 4 | Cc1ccc(NCCNc2ccc(C)cc2)cc1 |
| 4.69 | c1ccc(-c2cc3c(-c4ccccc4)ccnc3c3ncccc23)cc1 |
| 8.19 | NCCC[NH2+]CCO |
| 7.01 | Nc1nc2cc3ccccc3cc2[nH]1 |
| 4.25 | O=Cc1ccnc2ccccc12 |
| 10.3 | [S-]CCNCCc1ccccc1 |
| 1.36 | Cn1ccc(=S)cc1 |
| 4.93 | Cc1cc(C)nc(N)n1 |
| 4.12 | CCCCCCCCCCCCNc1ccccc1 |
| 10.3 | NCCCCc1ccccn1 |
| 10.2 | CN(C)Cc1cc(C(=O)c2ccccc2)ccc1[O-] |
| 7.75 | [O-]c1ccnc([S-])[nH+]1 |
| 8.2 | CCCn1ccnc1C |
| -0.76 | N#CC(C#N)=NNc1ccccc1[N+](=O)[O-] |
| 6.74 | Nc1ccc2c(Cl)c3ccccc3nc2c1 |
| 6.03 | CCC(C)N(C)c1ccccc1 (stereo not given) |
| 0.27 | COc1ccc(-c2cnc(-c3ccc([NH3+])cc3)o2)cc1 |

Reference: the pKa sets of Baltruschat and Czodrowski (2020)
